Molecular target: HST2 (Saccharomyces cerevisiae, UniProt P53686)
Assay: Rapid-reaction single turnover quench-flow analysis
Type: biochemical, yeast
Settings: HST2, excess NAD^+, sub-stoichiometric [^3H]-AcLys14 H3, 22±3° C., pH 7.5, single exponential fit
From the text: FIGS. 5A-5C are a series of graphs showing that acetate is not a primary product of HST2-catalyzed histone/protein deacetylation. H3 peptide was stoichiometrically acetylated on Lys-14 by the histone acetyltransferase P/CAF and using [^3H]-AcCoA. Monoacetylated [^3H]-AcLys-14 H3 peptide was then purified by HPLC (FIG. 5A) and utilized as a substrate in the HST2 deacetylation reactions (FIG. 5B). Upon complete consumption of [^3H]-AcLys-14 H3 by HST2, all of the original [^3H] from H3 peptide was converted to a labeled product that eluted much later than authentic acetate. Conditions: 375 nM HST2, 175 μM NAD^+, 5 μM [^3H]-Lys14 AcH3, 1 mM DTT, for 1 min at 37° C. prior to quenching with TFA to a final concentration of 1%. FIG. 5C: Single turnover rapid quench-flow analysis. […] Quantification of [^3H]-AcLys14 H3 peptide (diamonds) and the [^3H]-acetate-adduct (circles) was accomplished by liquid scintillation counting of these species separated using reverse phase HPLC. […]
P/CAF [^3H]-monoacetylation of H3 peptide. […] Every mass spectrum was recorded as the sum of 20 consecutive spectra, each produced by a single pulse of photons. […] The amount of [^3H]-AcLys14 H3 peptide and [^3H]-O-acetyl ADP ribose was determined by liquid scintillation counting of these species separated on reverse phase HPLC. […]

HST2, sequence (P53686 whole entry): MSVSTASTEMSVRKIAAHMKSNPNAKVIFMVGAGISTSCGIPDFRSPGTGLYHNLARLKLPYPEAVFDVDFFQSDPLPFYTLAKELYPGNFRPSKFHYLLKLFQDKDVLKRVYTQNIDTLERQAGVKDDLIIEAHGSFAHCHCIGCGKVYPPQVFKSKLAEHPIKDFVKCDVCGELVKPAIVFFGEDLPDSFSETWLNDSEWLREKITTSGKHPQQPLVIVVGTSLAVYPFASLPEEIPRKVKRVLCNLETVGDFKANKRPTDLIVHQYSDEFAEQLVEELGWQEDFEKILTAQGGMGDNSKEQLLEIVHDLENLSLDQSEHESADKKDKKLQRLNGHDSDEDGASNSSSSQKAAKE

## O-acetyl-ADP ribose
  rate constant of acetate-adduct formation: 2.3 ± 0.2 s⁻¹

Source: US7521432B2, “Compositions and methods for identifying agents which regulate chromosomal stability, gene activation and aging” (priority 2000, dated 2009)
